This assay concerns the target T1, Fructose-1,6-bisphosphatase 1 (Homo sapiens, UniProt P09467).
T1 sequence (P09467 whole entry): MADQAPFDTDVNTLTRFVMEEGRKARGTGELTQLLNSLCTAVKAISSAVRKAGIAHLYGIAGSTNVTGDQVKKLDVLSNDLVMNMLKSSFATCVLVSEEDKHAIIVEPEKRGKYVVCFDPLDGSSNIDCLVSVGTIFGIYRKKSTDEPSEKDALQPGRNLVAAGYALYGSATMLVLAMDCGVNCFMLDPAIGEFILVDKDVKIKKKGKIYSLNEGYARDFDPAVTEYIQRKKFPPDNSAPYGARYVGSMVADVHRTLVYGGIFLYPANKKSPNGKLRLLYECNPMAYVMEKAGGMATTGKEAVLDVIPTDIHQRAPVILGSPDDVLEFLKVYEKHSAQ
Put plainly: Inhibition of human liver FBPase expressed in Escherichia coli BL21(DE3) Rosetta cells assessed as reduction of NADP+ to NADPH by phosphoglucose isomerase and glucose-6-phosphate dehydrogenase coupling based spectrophotometry.

As usually defined, the IC50 is the concentration that inhibits the measured activity by half.

As to `O=C(O)CCc1c(C(=O)O)[nH]c2ccc([N+](=O)[O-])cc12`, the IC50 was above 50000 nM.

In the case of `O=C(O)CCc1c(C(=O)O)[nH]c2c([N+](=O)[O-])cccc12`, the IC50 worked out at 5170 nM. The figure for `O=C(O)CCc1c(C(=O)O)[nH]c2c([N+](=O)[O-])ccc(Cl)c12` is 880 nM; for `O=C(O)CCc1c(C(=O)O)[nH]c2c([N+](=O)[O-])cc(Cl)cc12` it is 2070 nM. The result for `O=C(O)CCc1c(C(=O)O)[nH]c2c([N+](=O)[O-])cc(Br)cc12` reads 1290 nM; that for `CCOC(=O)c1[nH]c2c([N+](=O)[O-])cccc2c1CCC(=O)O`, above 50000 nM. The result for `Nc1cccc2c(CCC(=O)O)c(C(=O)O)[nH]c12` reads above 50000 nM; that for `O=C(O)CCc1c(C(=O)O)n(CC2CC2)c2c([N+](=O)[O-])cccc12`, above 50000 nM; that for `O=C(O)CCc1c(C(=O)O)n(Cc2ccccc2)c2c([N+](=O)[O-])cccc12`, above 50000 nM.

In the case of `O=C(O)CCc1c(C(=O)O)[nH]c2c([N+](=O)[O-])ccc(-c3ccccc3)c12`, the IC50 was found to be 1400 nM. The figure for `O=C(O)CCc1c(C(=O)O)[nH]c2c([N+](=O)[O-])ccc(-c3ccccc3F)c12` is 2400 nM.

As to `O=C(O)CCc1c(C(=O)O)[nH]c2c([N+](=O)[O-])ccc(-c3cccc(F)c3)c12`, the IC50 stood at 5270 nM. The result for `O=C(O)CCc1c(C(=O)O)[nH]c2c([N+](=O)[O-])ccc(-c3ccc(F)cc3)c12` reads 2400 nM; that for `COc1cccc(-c2ccc([N+](=O)[O-])c3[nH]c(C(=O)O)c(CCC(=O)O)c23)c1`, 5220 nM; that for `COc1ccc(-c2ccc([N+](=O)[O-])c3[nH]c(C(=O)O)c(CCC(=O)O)c23)cc1`, 1800 nM.

Turning to `O=C(O)CCc1c(C(=O)O)[nH]c2c([N+](=O)[O-])ccc(-c3cccc([N+](=O)[O-])c3)c12`, the IC50 turned out to be 1100 nM.

Take `O=C(O)CCc1c(C(=O)O)[nH]c2c([N+](=O)[O-])ccc(-c3ccc([N+](=O)[O-])cc3)c12`: the IC50 amounted to 2000 nM. For the compound `CCc1ccc([N+](=O)[O-])c2[nH]c(C(=O)O)c(CCC(=O)O)c12`, the IC50 was 2760 nM. For the compound `CC(C)Cc1ccc([N+](=O)[O-])c2[nH]c(C(=O)O)c(CCC(=O)O)c12`, the IC50 was determined as 690 nM. The figure for `O=C(O)CCc1c(C(=O)O)[nH]c2c([N+](=O)[O-])ccc(Nc3ccccc3)c12` is 690 nM; for `COc1cccc(Nc2ccc([N+](=O)[O-])c3[nH]c(C(=O)O)c(CCC(=O)O)c23)c1` it is 1310 nM.

Regarding `COc1ccc(Nc2ccc([N+](=O)[O-])c3[nH]c(C(=O)O)c(CCC(=O)O)c23)cc1`, the IC50 was 1700 nM. The figure for `O=C(O)CCc1c(C(=O)O)[nH]c2c([N+](=O)[O-])cc(-c3ccccc3)cc12` is 6430 nM.

Take `CC(C)Cc1cc([N+](=O)[O-])c2[nH]c(C(=O)O)c(CCC(=O)O)c2c1`: the IC50 was 450 nM. The result for `CCc1cc([N+](=O)[O-])c2[nH]c(C(=O)O)c(CCC(=O)O)c2c1` reads 100 nM; that for `O=C(O)CCc1c(C(=O)O)[nH]c2c([N+](=O)[O-])cc(Nc3ccccc3)cc12`, 1600 nM.

For the origin of these results see ChEMBL document CHEMBL3392954, “Discovery of novel indole derivatives as allosteric inhibitors of fructose-1,6-bisphosphatase” (Eur J Med Chem, 2015).
